The record followed here is patent US11834460B2, “Imide-based modulators of proteolysis and associated methods of use” (YALE UNIVERSITY, priority 2018, dated 2023).

Each structure is given as a SMILES string. Where a SMILES comes first, the peptide text is derived from it. The star is where a group is joined. Cbz = O=C(OCc1ccccc1)* Where only a bound is given, the exact number is not on record here.

One assay addresses T1, BRD4 (Homo sapiens, UniProt O60885).
T1 construct: endogenous in cells; host or cells: NAMALWA, Ramos, CA-46, DAUDI
The assay is described as follows: Western blot analysis of BRD4 in BL cell lines. Format: cell-based. To be noted: inhibitor 5 μM with A825 10 nM or 100 nM; overnight; NAMALWA cells. The method, then:
Cultured cells were collected in lysis buffer containing 40 mM HEPES (pH 7.4), 140 mM NaCl, 2.5 mM EDTA, 1% NP-40, 0.1% SDS and protease inhibitor cocktail. After 10 minutes of centrifugation (14000 rpm), supernatant was collected for protein concentration determination by BCA method and subjected for immunoblotting by standard protocol. Western blot results were visualized using Bio-Rad Clarity ECL Western Blotting Substrate on Bio-Rad ChemiDoc™ MP imaging system.
A separate set of cells were treated in the same manner, except that DMSO was used in place of the inhibitor. […] Following treatment, cell lysates were collected and analyzed by immunoblot for BRD4 and Actin.
Specifically, NAMALWA and Ramos cells were treated with 300 nM of each inhibitor for 0 hr, 0.5 hr, 1.0 hr, 2.0 hr, 4.0 hr, 7.0 hr, 24 hr, and 48.0 hr. Following treatment, cell lysates were collected and analyzed by immunoblot for BRD4 and Actin.
(§1) Following treatment, cell lysates were collected and analyzed by immunoblot for BRD4 and Actin.
as §1, §1, §1
Cells were re-seeded in fresh medium and incubated without any compound for 0 hr, 2.0 hr, 4.0 hr, 6.0 hr, and 24.0 hr. In a parallel control experiment, cells were treated in the same manner, except DMSO was used in place of inhibitor. Lysates were collected and analyzed by immunoblot for BRD4, c-Myc, and Actin.
On the technique in general: In western blotting, separated proteins are transferred to a membrane and probed.

For the next assay, the target named is T2, androgen receptor (AR) (Homo sapiens, UniProt P10275).
T2 construct: detects endogenous levels of total androgen receptor protein; endogenous in cells; host or cells: VCaP
T2 sequence (P10275 1-920): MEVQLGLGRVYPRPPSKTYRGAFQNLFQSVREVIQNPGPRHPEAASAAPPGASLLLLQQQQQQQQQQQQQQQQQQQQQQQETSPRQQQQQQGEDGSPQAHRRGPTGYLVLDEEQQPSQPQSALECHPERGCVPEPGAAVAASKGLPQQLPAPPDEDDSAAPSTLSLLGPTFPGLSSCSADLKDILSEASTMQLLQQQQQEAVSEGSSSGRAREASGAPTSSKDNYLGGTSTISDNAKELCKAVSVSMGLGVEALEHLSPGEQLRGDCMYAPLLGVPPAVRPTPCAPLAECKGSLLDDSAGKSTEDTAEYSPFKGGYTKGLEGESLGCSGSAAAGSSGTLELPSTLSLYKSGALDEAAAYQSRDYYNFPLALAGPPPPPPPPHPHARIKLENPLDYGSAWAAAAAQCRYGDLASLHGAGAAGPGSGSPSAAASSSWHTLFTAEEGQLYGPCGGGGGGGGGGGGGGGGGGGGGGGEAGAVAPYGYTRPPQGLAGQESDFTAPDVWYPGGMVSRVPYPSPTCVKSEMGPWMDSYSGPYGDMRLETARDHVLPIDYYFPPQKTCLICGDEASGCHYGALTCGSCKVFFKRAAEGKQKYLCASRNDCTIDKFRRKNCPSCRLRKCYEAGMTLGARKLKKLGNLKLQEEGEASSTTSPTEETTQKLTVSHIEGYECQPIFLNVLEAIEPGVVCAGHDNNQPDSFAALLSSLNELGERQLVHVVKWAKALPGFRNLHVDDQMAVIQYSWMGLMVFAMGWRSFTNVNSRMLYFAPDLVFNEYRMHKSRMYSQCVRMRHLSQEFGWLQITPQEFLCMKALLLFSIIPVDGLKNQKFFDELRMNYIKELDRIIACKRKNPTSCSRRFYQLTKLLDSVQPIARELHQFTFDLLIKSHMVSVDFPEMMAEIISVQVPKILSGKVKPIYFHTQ
As to the kind of experiment: AR ELISA protocol, degradation in VCaP cells. Format: cell-based. On the set-up: Dmax: dose or concentration left out as unconfirmed. The conditions noted are these: 16 h. The method, then:
In each bioassay, cells were treated with varying amounts of compounds encompassed by the present disclosure, as shown in Table 1. The degradation of the following proteins were evaluated in this study: TANK-binding kinase 1 (TBK1), estrogen receptor α (ERα), bromodomain-containing protein 4 (BRD4), androgen receptor (AR), and c-Myc.
VCaP cells were purchased from ATCC and cultured in Dulbecco's Modified Eagle's Medium (ATCC), supplemented with 10% FBS (ATCC) and Penicillin/Streptomycin (Life Technologies). DMSO control and compound treatments (0.0001 μM-1 μM) were performed in 96-well plates for 16 h. Cells were harvested, and lysed with Cell Lysis Buffer (Catalog #9803) (20 mM Tris-HCL (pH 7.5), 150 mM NaCl, 1 mM Na2EDTA, 1 mM EGTA, 1% Triton, 2.5 mM sodium pyrophosphate, 1 mM B-glycerophosphate, 1 mM Na3VO4, 1 ug/ml leupeptin. Lysates were clarified at 16,000 g for 10 minutes, and loaded into the PathScan AR ELISA (Cell Signaling Catalog #12850). The PathScan® Total Androgen Receptor Sandwich ELISA Kit is a solid phase sandwich enzyme-linked immunosorbent assay (ELISA) that detects endogenous levels of total androgen receptor protein. An Androgen Receptor Rabbit mAb has been coated onto the microwells. After incubation with cell lysates, androgen receptor protein is captured by the coated antibody. Following extensive washing, an Androgen Receptor Mouse Detection mAb is added to detect the captured androgen receptor protein. Anti-mouse IgG, HRP-linked Antibody is then used to recognize the bound detection antibody. HRP substrate, TMB, is added to develop color. The magnitude of absorbance for the developed color is proportional to the quantity of total androgen receptor protein. Antibodies in kit are custom formulations specific to kit.
A general note: In an ELISA, binding on a coated surface is turned into a signal by an enzyme label.

On to `CC(C)C[C@H](NC(=O)[C@H](CCc1ccccc1)NC(=O)CN1CCOCC1)C(=O)N[C@@H](Cc1ccccc1)C(=O)N[C@@H](CC(C)C)C(=O)[C@@]1(C)CO1` [Carfizomib], for which the “effect of proteasome inhibitor on A825-induced BRD4 degradation” value on BRD4 was “completely prevented BRD4 degradation”. For the compound `CC1(C)C(=O)N(c2ccc(C#N)c(C(F)(F)F)c2)C(=S)N1c1ccc(OCCCOCCOCCOCCNc2cccc3c2C(=O)N(C2CCC(=O)NC2=O)C3=O)cc1` (stereo not drawn) [Compound 1, 4-(3-(4-(3-(2-(2-(2-((2-(2,6-dioxopiperidin-3-yl)-1,3-dioxoisoindolin-4-yl)amino)ethoxy)ethoxy)ethoxy)propoxy)phenyl)-4,4-dimethyl-5-oxo-2-thioxoimidazolidin-1-yl)-2-(trifluoromethyl) benzonitrile], the greatest degradation seen (Dmax) (commonly the greatest extent of degradation seen) at androgen receptor (AR) was 10 to 30%. Consider `CC1(C)C(=O)N(c2ccc(C#N)c(C(F)(F)F)c2)C(=S)N1c1ccc(OCCCOCCCOCCNc2cccc3c2C(=O)N(C2CCC(=O)NC2=O)C3=O)cc1` (stereo not drawn) [Compound 2], for which the Dmax at 1 µM on androgen receptor (AR) was 31 to 50%. On the same count and under the same terms, under `CC1(C)C(=O)N(c2ccc(C#N)c(C(F)(F)F)c2)C(=S)N1c1ccc(OCCOCCOCCOCCNc2cccc3c2C(=O)N(C2CCC(=O)NC2=O)C3=O)cc1` (stereo not drawn) [Compound 3, 4-(3-(4-(2-(2-(2-(2-((2-(2,6-dioxopiperidin-3-yl)-1,3-dioxoisoindolin-4-yl)amino)ethoxy)ethoxy)ethoxy)ethoxy)phenyl)-4,4-dimethyl-5-oxo-2-thioxo-imidazolidin-1-yl)-2-(trifluoromethyl) benzonitrile] stands 31 to 50%. On the same count and under the same terms, under `CC1(C)C(=O)N(c2ccc(C#N)c(C(F)(F)F)c2)C(=S)N1c1ccc(OCCOCCOCCOCCNc2cccc3c2C(=O)N([C@H]2CCC(=O)NC2=O)C3=O)cc1` [Compound 4, (S)-4-(3-(4-(2-(2-(2-(2-((2-(2,6-dioxopiperidin-3-yl)-1,3-dioxoisoindolin-4-yl)amino)ethoxy)ethoxy)ethoxy)ethoxy)phenyl)-4,4-dimethyl-5-oxo-2-thioxoimidazolidin-1-yl)-2-(trifluoromethyl) benzonitrile] stands 31 to 50%; under `CC1(C)C(=O)N(c2ccc(C#N)c(C(F)(F)F)c2)C(=S)N1c1ccc(OCCOCCOCCOCCNc2cccc3c2C(=O)N([C@@H]2CCC(=O)NC2=O)C3=O)cc1` [Compound 5, (R)-4-(3-(4-(2-(2-(2-(2-((2-(2,6-dioxopiperidin-3-yl)-1,3-dioxoisoindolin-4-yl)amino)ethoxy)ethoxy)ethoxy)ethoxy)phenyl)-4,4-dimethyl-5-oxo-2-thioxoimidazolidin-1-yl)-2-(trifluoromethyl) benzonitrile], 31 to 50%. In the case of `CC1(C)C(=O)N(c2ccc(C#N)c(C(F)(F)F)c2)C(=S)N1c1ccc(OCCOCCOCCOCCOCCOCCNc2cccc3c2C(=O)N(C2CCC(=O)NC2=O)C3=O)cc1` (stereo not drawn) [Compound 6, 4-(3-(4-((17-((2-(2,6-dioxopiperidin-3-yl)-1,3-dioxoisoindolin-4-yl)amino)-3,6,9,12,15-pentaoxa-heptadecyl)oxy)phenyl)-4,4-dimethyl-5-oxo-2-thioxoimidazolidin-1-yl)-2-(trifluoromethyl) benzonitrile], the Dmax at 1 µM on androgen receptor (AR) was 10 to 30%. The same measure, in the same setting: under `CC1(C)C(=O)N(c2ccc(C#N)c(C(F)(F)F)c2)C(=S)N1c1ccc(OCCOCCNc2cccc3c2C(=O)N(C2CCC(=O)NC2=O)C3=O)cc1` (stereo not drawn) [Compound 7, 4-(3-(4-(2-(2-((2-(2,6-dioxopiperidin-3-yl)-1,3-dioxoisoindolin-4-yl)amino)ethoxy)ethoxy)phenyl)-4,4-dimethyl-5-oxo-2-thioxoimidazolidin-1-yl)-2-(trifluoromethyl) benzonitrile] stands 10 to 30%; under `CC1(C)C(=O)N(c2ccc(C#N)c(C(F)(F)F)c2)C(=S)N1c1ccc(OCCOCCOCCNc2cccc3c2C(=O)N(C2CCC(=O)NC2=O)C3=O)cc1` (stereo not drawn) [Compound 8, 4-(3-(4-(2-(2-(2-((2-(2,6-dioxopiperidin-3-yl)-1,3-dioxoisoindolin-4-yl)amino)ethoxy)ethoxy)ethoxy)phenyl)-4,4-dimethyl-5-oxo-2-thioxoimidazolidin-1-yl)-2-(trifluoromethyl) benzonitrile], 10 to 30%. The same measure, in the same setting: under `CC1(C)C(=O)N(c2ccc(C#N)c(C(F)(F)F)c2)C(=S)N1c1ccc(OCCCOCCOCCNc2cccc3c2C(=O)N(C2CCC(=O)NC2=O)C3=O)cc1` (stereo not drawn) [Compound 9, 4-(3-(4-(3-(2-(2-((2-(2,6-dioxopiperidin-3-yl)-1,3-dioxoisoindolin-4-yl)amino)ethoxy)ethoxy)propoxy)phenyl)-4,4-dimethyl-5-oxo-2-thioxoimidazolidin-1-yl)-2-(trifluoromethyl) benzonitrile] stands 10 to 30%. In the case of `CC1(C)C(=O)N(c2ccc(C#N)c(C(F)(F)F)c2)C(=S)N1c1ccc(OCCCCOCCOCCOCCNc2cccc3c2C(=O)N(C2CCC(=O)NC2=O)C3=O)cc1` (stereo not drawn) [Compound 10], the Dmax at androgen receptor (AR) lay in the range of 31 to 50%.

As for `CC1(C)[C@H](NC(=O)c2ccc(OCCCCCOCCCNc3cccc4c3C(=O)N(C3CCC(=O)NC3=O)C4=O)cc2)C(C)(C)[C@H]1Oc1ccc(C#N)c(Cl)c1` (stereo partly drawn) [Compound 11], the maximal degradation (Dmax) at 1 µM at androgen receptor (AR) was over 50%.

In the case of `CC1(C)C(=O)N(c2ccc(C#N)c(C(F)(F)F)c2)C(=S)N1c1ccc(OCCCOCCOCCOCCNc2cccc3c2C(=O)N(C2(C)CCC(=O)NC2=O)C3=O)cc1` (stereo not drawn) [Compound 12, 4-(4,4-dimethyl-3-(4-((1-(2-(3-methyl-2,6-dioxopiperidin-3-yl)-1,3-dioxo-2,3-dihydro-1H-isoindol-4-yl)-4,7,10-trioxa-1-azatridecan-13-yl)oxy)phenyl)-5-oxo-2-sulfanylidene-imidazolidin-1-yl)-2-(trifluoromethyl) benzonitrile], on androgen receptor (AR), the Dmax was 10 to 30%. On androgen receptor (AR), `CC1(C)C(=O)N(c2ccc(C#N)c(C(F)(F)F)c2)C(=S)N1c1ccc(-c2ccc(OCCCCCNc3cccc4c3C(=O)N(C3CCC(=O)NC3=O)C4=O)cc2)cc1` (stereo not drawn) [Compound 13, 4-(3-(4-(4-((5-((2-(2,6-dioxopiperidin-3-yl)-1,3-dioxo-2,3-dihydro-1H-isoindol-4-yl)amino)pentyl)oxy)phenyl)phenyl)-4,4-dimethyl-5-oxo-2-sulfanylidene-imidazolidin-1-yl)-2-(trifluoromethyl) benzonitrile] showed a Dmax at 1 µM of over 50%. As to `CC(C)C[C@@H](C=O)NC(=O)[C@H](CC(C)C)NC(=O)[C@H](CC(C)C)NC(=O)OCc1ccccc1` [MG132] (Cbz-Leu-Leu-Leu-aldehyde), at BRD4, the “effect of proteasome inhibitor on A825-induced BRD4 degradation” value was “completely prevented BRD4 degradation”.
